Legend:
[1] = biological target: T1, Adenosine 5'-monophosphoramidase HINT1 (Homo sapiens, UniProt P49773); experiment: Inhibition of His-tagged human full length HINT1 expressed in Rosetta2 pLysS cells using TrpAMP as substrate measured for 2 to 30 mins by fluorescence assay
[2] = biological target: T1, Adenosine 5'-monophosphoramidase HINT1; experiment: Binding affinity to recombinant human HINT1 by isothermal titration calorimetric assay
[3] = biological target: T1, Adenosine 5'-monophosphoramidase HINT1; experiment: Binding affinity to His-tagged human full length HINT1 expressed in Rosetta2 pLysS cells by isothermal titration calorimetric assay
[4] = Stability of the compound in PBS buffer assessed as cyclonucleoside formation at 50 to 100 uM by HPLC analysis; format: physicochemical
[5] = Aqueous solubility of the compound in aqueous buffer at 20 mM; format: physicochemical; details: 20000 µM
[6] = Aqueous solubility of the compound in aqueous buffer at 5 mM; format: physicochemical; details: 5000 µM

T1 sequence (P49773 whole entry): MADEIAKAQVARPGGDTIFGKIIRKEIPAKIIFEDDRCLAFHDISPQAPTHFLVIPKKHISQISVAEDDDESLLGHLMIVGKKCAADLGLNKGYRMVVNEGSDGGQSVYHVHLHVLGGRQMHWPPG

Row | SMILES | IC50 [1] [µM] | inhibition [1] | Kd [3] [nM] | solubility [6] | further results
1 | Nc1nc2c(ncn2[C@@H]2O[C@H](COC(=O)NCCc3c[nH]c4ccccc34)[C@@H](O)[C@H]2O)c(=O)[nH]1 | 25.5 | Dose-dependent effect |  |  | Kd [2]: 3.65 µM
2 | Nc1ncnc2c1ncn2[C@@H]1O[C@H](CNS(=O)(=O)NC(=O)CCCC[C@@H]2SC[C@@H]3NC(=O)N[C@@H]32)[C@@H](O)[C@H]1O | 1 | Dose-dependent effect | 320 |  | 
3 | CCN(CC)CC.O=C(CCc1c[nH]c2ccccc12)NS(=O)(=O)OC[C@H]1O[C@@H](n2cnc3c2ncn2ccnc32)[C@H](O)[C@@H]1O |  |  |  |  | Stability [4]: Stable; solubility [5]: Soluble
4 | CCCC(=O)NS(=O)(=O)OC[C@H]1O[C@@H](n2cnc3c(=O)[nH]c(N)nc32)[C@H](O)[C@@H]1O.CCN(CC)CC |  |  | 2900 | Soluble | 
5 | CCN(CC)CC.Nc1nc2c(ncn2[C@@H]2O[C@H](CNS(=O)(=O)NC(=O)CCc3c[nH]c4ccccc34)[C@@H](O)[C@H]2O)c(=O)[nH]1 |  |  | 920 | Soluble | 
6 | CCN(CC)CC.Nc1nc2c(ncn2[C@@H]2O[C@H](COS(=O)(=O)NC(=O)CCc3c[nH]c4ccccc34)[C@@H](O)[C@H]2O)c(=O)[nH]1 |  |  | 810 | Soluble | 

— ChEMBL document CHEMBL4431377, “Design, Synthesis, and Characterization of Sulfamide and Sulfamate Nucleotidomimetic Inhibitors of hHint1” (ACS Med Chem Lett, 2016)
